# Read-outs that look alike come from different tables or passages of the source.
# Target: T1, BRM (Homo sapiens, UniProt P51531)
# T1 construct: In-Cell Western Screen of BRM Degradation in SW1573 Cells; endogenous in cells; host or cells: SW1573
# Test: In-cell Western screen of BRM degradation in SW1573 cells (Dmax and DC50)
# Format: cell-based
# Summary of the method: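 Adherent SW1573 cultures exposed to test compounds for 18-20 h were processed for in-cell Western after PFA fixation and detergent permeabilization. BRM degradation was reported as Dmax and DC50.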
# [1] = BRM degradation, SW1573 cells, read-out: DC50
# [2] = BRM degradation, SW1573 cells, tested at the top concentration of between 0.3 and 10 μM, read-out: Dmax (%) (% degraded)
# T1 sequence (P51531 whole entry): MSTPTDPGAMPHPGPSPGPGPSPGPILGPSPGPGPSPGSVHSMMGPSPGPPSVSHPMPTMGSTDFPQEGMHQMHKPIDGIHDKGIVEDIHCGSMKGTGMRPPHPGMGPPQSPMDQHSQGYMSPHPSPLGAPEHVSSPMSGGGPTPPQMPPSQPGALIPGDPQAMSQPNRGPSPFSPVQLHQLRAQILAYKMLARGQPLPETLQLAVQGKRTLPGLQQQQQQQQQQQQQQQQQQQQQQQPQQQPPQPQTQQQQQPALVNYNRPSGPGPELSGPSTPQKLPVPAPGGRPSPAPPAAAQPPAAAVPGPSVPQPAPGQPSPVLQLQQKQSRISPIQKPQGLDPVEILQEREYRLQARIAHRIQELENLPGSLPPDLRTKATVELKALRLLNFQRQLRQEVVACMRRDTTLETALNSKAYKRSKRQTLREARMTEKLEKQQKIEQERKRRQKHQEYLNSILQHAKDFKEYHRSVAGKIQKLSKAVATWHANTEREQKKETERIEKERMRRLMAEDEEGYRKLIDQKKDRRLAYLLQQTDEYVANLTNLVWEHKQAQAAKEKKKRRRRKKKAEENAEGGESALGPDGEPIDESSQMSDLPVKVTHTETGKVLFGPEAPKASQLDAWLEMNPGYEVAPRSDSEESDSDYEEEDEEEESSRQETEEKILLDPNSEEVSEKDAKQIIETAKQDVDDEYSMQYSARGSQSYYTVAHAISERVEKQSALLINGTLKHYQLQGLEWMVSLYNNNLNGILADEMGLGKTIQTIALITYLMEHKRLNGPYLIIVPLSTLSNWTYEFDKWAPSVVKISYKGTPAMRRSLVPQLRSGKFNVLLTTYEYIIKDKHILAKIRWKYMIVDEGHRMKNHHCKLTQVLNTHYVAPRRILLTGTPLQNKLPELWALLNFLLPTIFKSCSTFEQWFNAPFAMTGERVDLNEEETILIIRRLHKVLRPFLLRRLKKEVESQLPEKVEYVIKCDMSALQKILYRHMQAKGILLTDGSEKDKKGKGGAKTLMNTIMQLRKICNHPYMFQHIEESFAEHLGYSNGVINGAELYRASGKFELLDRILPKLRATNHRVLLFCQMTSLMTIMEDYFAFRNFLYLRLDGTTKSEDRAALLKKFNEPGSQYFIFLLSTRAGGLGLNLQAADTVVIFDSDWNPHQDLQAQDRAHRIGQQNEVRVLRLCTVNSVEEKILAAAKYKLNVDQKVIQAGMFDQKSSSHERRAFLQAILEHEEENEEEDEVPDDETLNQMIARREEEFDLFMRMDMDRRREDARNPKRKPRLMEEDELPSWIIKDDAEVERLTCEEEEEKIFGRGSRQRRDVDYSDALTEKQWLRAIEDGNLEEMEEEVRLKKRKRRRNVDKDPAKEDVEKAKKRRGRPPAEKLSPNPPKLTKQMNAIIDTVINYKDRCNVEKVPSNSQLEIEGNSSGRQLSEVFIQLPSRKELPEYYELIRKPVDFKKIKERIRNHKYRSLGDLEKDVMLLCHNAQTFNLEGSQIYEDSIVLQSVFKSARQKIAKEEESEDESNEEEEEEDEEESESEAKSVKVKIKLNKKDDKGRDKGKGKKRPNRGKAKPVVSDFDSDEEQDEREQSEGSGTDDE
Structure (SMILES),DC50 [1] [nM],Dmax [2] [%],"Dmax (SW1573, % degraded, when tested at the top concentration of between 0.3 and 10 μM, read-out: BRM Dmax (%)) [%]","DC50 (target protein degradation, read-out: BRM DC50) [nM]"
"CC(C)[C@@H](C(=O)N1C[C@H](O)C[C@H]1C(=O)N[C@@H](C)c1ccc(-n2ccnn2)cc1)c1cc(OCCN2CCN(CCOc3cc(N4C5CCC4CN(c4cc(-c6ccccc6O)nnc4N)C5)ccn3)CC2)no1 [compound 293, (2S,4R)-N-((S)-1-(4-(1H-1,2,3-triazol-1-yl)phenyl)ethyl)-1-((2R)-2-(3-(2-(4-(2-((4-(3-(3-amino-6-(2-hydroxyphenyl)pyridazin-4-yl)-3,8-diazabicyclo[3.2.1]octan-8-yl)pyridin-2-yl)oxy)ethyl)piperazin-1-yl)ethoxy)isoxazol-5-yl)-3-methylbutanoyl)-4-hydroxypyrrolidine-2-carboxamide]",2.5 to 10,> 75,,
"Cc1cnn(C)c1-c1ccc([C@H](C)NC(=O)[C@@H]2C[C@@H](O)CN2C(=O)[C@H](c2cc(OCCN3CCC(O[C@H]4C[C@H](Oc5cc(N6C7CCC6CN(c6cc(-c8ccccc8O)nnc6N)C7)ccn5)C4)CC3)no2)C(C)C)cc1 [compound 294, (2S,4R)-1-((2S)-2-(3-(2-(4-((1r,3S)-3-((4-(3-(3-amino-6-(2-hydroxyphenyl)pyridazin-4-yl)-3,8-diazabicyclo[3.2.1]octan-8-yl)pyridin-2-yl)oxy)cyclobutoxy)piperidin-1-yl)ethoxy)isoxazol-5-yl)-3-methylbutanoyl)-N-((S)-1-(4-(1,4-dimethyl-1H-pyrazol-5-yl)phenyl)ethyl)-4-hydroxypyrrolidine-2-carboxamide]",2.5 to 10,> 75,,
"Cc1cnn(C)c1-c1ccc([C@H](C)NC(=O)[C@@H]2C[C@@H](O)CN2C(=O)[C@@H](c2cc(OCCN3CCC(O[C@H]4C[C@H](Oc5cc(N6C7CCC6CN(c6cc(-c8ccccc8O)nnc6N)C7)ccn5)C4)CC3)no2)C(C)C)cc1 [compound 295, (2S,4R)-1-((2R)-2-(3-(2-(4-((1r,3R)-3-((4-(3-(3-amino-6-(2-hydroxyphenyl)pyridazin-4-yl)-3,8-diazabicyclo[3.2.1]octan-8-yl)pyridin-2-yl)oxy)cyclobutoxy)piperidin-1-yl)ethoxy)isoxazol-5-yl)-3-methylbutanoyl)-N-((S)-1-(4-(1,4-dimethyl-1H-pyrazol-5-yl)phenyl)ethyl)-4-hydroxypyrrolidine-2-carboxamide]",< 2.5,> 75,,
"Cc1ncsc1-c1ccc([C@H](C)NC(=O)[C@@H]2C[C@@H](O)CN2C(=O)[C@@H](c2cc(OCCN3CCN(C[C@H]4C[C@H](Oc5cc(N6C7CCC6CN(c6cc(-c8ccccc8O)nnc6N)C7)ccn5)C4)C[C@@H]3C)no2)C(C)C)cn1 [compound 296, (2S,4R)-1-((2R)-2-(3-(2-((2S)-4-(((1r,3S)-3-((4-(3-(3-amino-6-(2-hydroxyphenyl)pyridazin-4-yl)-3,8-diazabicyclo[3.2.1]octan-8-yl)pyridin-2-yl)oxy)cyclobutyl)methyl)-2-methylpiperazin-1-yl)ethoxy)isoxazol-5-yl)-3-methylbutanoyl)-4-hydroxy-N-((S)-1-(6-(4-methylthiazol-5-yl)pyridin-3-yl)ethyl)pyrrolidine-2-carboxamide]",< 2.5,> 75,,
Cc1ncsc1-c1ccc([C@@H](COCC(C)C)NC(=O)[C@@H]2C[C@@H](O)CN2C(=O)[C@H](c2cc(OCCN3CCN(CCOc4cc(N5C6CCC5CN(c5cc(-c7ccccc7O)nnc5N)C6)ccn4)CC3)no2)C(C)C)cc1 [compound 297],> 30,,,
"Cc1ncsc1-c1ccc([C@@H](COCC(C)C)NC(=O)[C@@H]2C[C@@H](O)CN2C(=O)[C@@H](c2cc(OCCN3CCN(CCOc4cc(N5C6CCC5CN(c5cc(-c7ccccc7O)nnc5N)C6)ccn4)CC3)no2)C(C)C)cc1 [compound 298, (2S,4R)-1-((2R)-2-(3-(2-(4-(2-((4-(3-(3-amino-6-(2-hydroxyphenyl)pyridazin-4-yl)-3,8-diazabicyclo[3.2.1]octan-8-yl)pyridin-2-yl)oxy)ethyl)piperazin-1-yl)ethoxy)isoxazol-5-yl)-3-methylbutanoyl)-4-hydroxy-N-((S)-2-isobutoxy-1-(4-(4-methylthiazol-5-yl)phenyl)ethyl)pyrrolidine-2-carboxamide]",< 2.5,> 75,,
"Cc1ncoc1-c1ccc([C@H](C)NC(=O)[C@@H]2C[C@@H](O)CN2C(=O)[C@H](c2cc(OCCN3CCN(CCOc4cc(N5C6CCC5CN(c5cc(-c7ccccc7O)nnc5N)C6)ccn4)CC3)no2)C(C)C)cc1 [compound 299, (2S,4R)-1-((2S)-2-(3-(2-(4-(2-((4-(3-(3-amino-6-(2-hydroxyphenyl)pyridazin-4-yl)-3,8-diazabicyclo[3.2.1]octan-8-yl)pyridin-2-yl)oxy)ethyl)piperazin-1-yl)ethoxy)isoxazol-5-yl)-3-methylbutanoyl)-4-hydroxy-N-((S)-1-(4-(4-methyloxazol-5-yl)phenyl)ethyl)pyrrolidine-2-carboxamide]",> 30,,,
"Cc1ncoc1-c1ccc([C@H](C)NC(=O)[C@@H]2C[C@@H](O)CN2C(=O)[C@@H](c2cc(OCCN3CCN(CCOc4cc(N5C6CCC5CN(c5cc(-c7ccccc7O)nnc5N)C6)ccn4)CC3)no2)C(C)C)cc1 [compound 300, (2S,4R)-1-((2R)-2-(3-(2-(4-(2-((4-(3-(3-amino-6-(2-hydroxyphenyl)pyridazin-4-yl)-3,8-diazabicyclo[3.2.1]octan-8-yl)pyridin-2-yl)oxy)ethyl)piperazin-1-yl)ethoxy)isoxazol-5-yl)-3-methylbutanoyl)-4-hydroxy-N-((S)-1-(4-(4-methyloxazol-5-yl)phenyl)ethyl)pyrrolidine-2-carboxamide]",< 2.5,> 75,,
"Cc1cc([C@@H](C(=O)N2C[C@H](O)C[C@H]2C(=O)N[C@@H](C)c2ccc(-c3scnc3C)cc2)[C@@H](C)COCCOc2cc(N3C4CCC3CN(c3cc(-c5ccccc5O)nnc3N)C4)ccn2)on1 [compound 301, (2S,4R)-1-((2S,3R)-4-(2-((4-(3-(3-amino-6-(2-hydroxyphenyl)pyridazin-4-yl)-3,8-diazabicyclo[3.2.1]octan-8-yl)pyridin-2-yl)oxy)ethoxy)-3-methyl-2-(3-methylisoxazol-5-yl)butanoyl)-4-hydroxy-N-((S)-1-(4-(4-methylthiazol-5-yl)phenyl)ethyl)pyrrolidine-2-carboxamide]",2.5 to 10,> 75,,
"Cc1cc([C@H](C(=O)N2C[C@H](O)C[C@H]2C(=O)N[C@@H](C)c2ccc(-c3scnc3C)cc2)[C@@H](C)COCCOc2cc(N3C4CCC3CN(c3cc(-c5ccccc5O)nnc3N)C4)ccn2)on1 [compound 302, (2S,4R)-1-((2R,3R)-4-(2-((4-(3-(3-amino-6-(2-hydroxyphenyl)pyridazin-4-yl)-3,8-diazabicyclo[3.2.1]octan-8-yl)pyridin-2-yl)oxy)ethoxy)-3-methyl-2-(3-methylisoxazol-5-yl)butanoyl)-4-hydroxy-N-((S)-1-(4-(4-methylthiazol-5-yl)phenyl)ethyl)pyrrolidine-2-carboxamide]",10 to 30,> 75,,
"CC[C@H](NC(=O)[C@@H]1C[C@@H](O)CN1C(=O)[C@H](c1cc(OCCN2CCC(O[C@H]3C[C@H](Oc4cc(N5C6CCC5CN(c5cc(-c7ccccc7O)nnc5N)C6)ccn4)C3)CC2)no1)C(C)C)c1ccc(-c2scnc2C)cc1 [compound 350, (2S,4R)-1-((2S)-2-(3-(2-(4-((1r,3S)-3-((4-(3-(3-amino-6-(2-hydroxyphenyl)pyridazin-4-yl)-3,8-diazabicyclo[3.2.1]octan-8-yl)pyridin-2-yl)oxy)cyclobutoxy)piperidin-1-yl)ethoxy)isoxazol-5-yl)-3-methylbutanoyl)-4-hydroxy-N-((S)-1-(4-(4-methylthiazol-5-yl)phenyl)propyl)pyrrolidine-2-carboxamide]",> 30,,,
"CC[C@H](NC(=O)[C@@H]1C[C@@H](O)CN1C(=O)C(c1cc(OCCN2CCC(O[C@H]3C[C@H](Oc4cc(N5C6CCC5CN(c5cc(-c7ccccc7O)nnc5N)C6)ccn4)C3)CC2)no1)C(C)C)c1ccc(-c2scnc2C)cc1 (stereo partly drawn) [compound 351, (2S,4R)-1-((2R)-2-(3-(2-(4-((1r,3R)-3-((4-(3-(3-amino-6-(2-hydroxyphenyl)pyridazin-4-yl)-3,8-diazabicyclo[3.2.1]octan-8-yl)pyridin-2-yl)oxy)cyclobutoxy)piperidin-1-yl)ethoxy)isoxazol-5-yl)-3-methylbutanoyl)-4-hydroxy-N-((S)-1-(4-(4-methylthiazol-5-yl)phenyl)propyl)pyrrolidine-2-carboxamide]",< 2.5,> 75,,
"Cc1ncsc1-c1ccc([C@H](C)NC(=O)[C@@H]2C[C@@H](O)CN2C(=O)[C@@H](c2cc(OCCN3CCN(CCC#CCn4cc(-c5cc(-c6ccccc6O)nnc5N)cn4)CC3)no2)C(C)C)cn1 [compound 352, (2S,4R)-1-((R)-2-(3-(2-(4-(5-(4-(3-amino-6-(2-hydroxyphenyl)pyridazin-4-yl)-1H-pyrazol-1-yl)pent-3-yn-1-yl)piperazin-1-yl)ethoxy)isoxazol-5-yl)-3-methylbutanoyl)-4-hydroxy-N-((S)-1-(6-(4-methylthiazol-5-yl)pyridin-3-yl)ethyl)pyrrolidine-2-carboxamide]",< 2.5,> 75,,
"Cc1ncsc1-c1ccc([C@H](C)NC(=O)[C@@H]2C[C@@H](O)CN2C(=O)[C@H](c2cc(OCCN3CCC(OC4CN(c5cc(N6C7CCC6CN(c6cc(-c8ccccc8O)nnc6N)C7)ccn5)C4)CC3)no2)C(C)C)cc1 [compound 354, (2S,4R)-1-((2S)-2-(3-(2-(4-((1-(4-(3-(3-amino-6-(2-hydroxyphenyl)pyridazin-4-yl)-3,8-diazabicyclo[3.2.1]octan-8-yl)pyridin-2-yl)azetidin-3-yl)oxy)piperidin-1-yl)ethoxy)isoxazol-5-yl)-3-methylbutanoyl)-4-hydroxy-N-((S)-1-(4-(4-methylthiazol-5-yl)phenyl)ethyl)pyrrolidine-2-carboxamide]",,,> 75,2.5 to 10

# — patent publication US12539292B2, “BRM targeting compounds and associated methods of use” (Arvinas Operations, Inc., priority 2018, dated 2026)
